From patent US12193444B2, “Insecticidal composition and use thereof” (ADAMA MAKHTESHIM LTD., priority 2018, dated 2025)
Structures can show the parent of a compound that is named as a salt.

Legend:
[1] = Accelerated storage stability: degradation of active ingredients after 14 days at 54° C.; type: physicochemical
Description: In some embodiments, the percentage of degradation is calculated based on the percentage of cartap and/or emamectin by weight based on the total weight of the stable composition before and after storage. […]
In addition, two different levels of water content were measured, content (a) less than 0.2% and b) from more than 0.3% to less than 0.5%.
In example 1, the concentrations of the cartap and emamectin were measured after 14 days storage at 54° C.
For GR composition, it was observed that the failed batches are associated with the bulging of the pouch under accelerated storage. For study of accelerated storage at 54° C. for 14 days, the sample is kept in a sealed tri-laminated aluminum pouch and after storage, the visual observations are done to observe the pouch bulging, if any. Comparative rating was done, where more number of stars denotes more bulging. From table 5, it is clear that, for the storage stability samples of pH 5.1, 4.7, 4.1 and 3.5 (for both the processes) samples with water content of less or equal to 0.2% water content by weight based on the total weight of the stable composition, have not shown any bulging.

[2] = cited from earlier work
[3] = pH (1% Aq.) 3.5, water content <0.2 % w/w
[4] = pH (1% Aq.) 3.5, water content >0.3 to <0.5 % w/w
[5] = pH (1% Aq.) 4.1, water content <0.2 % w/w
[6] = pH (1% Aq.) 4.1, water content >0.3 to <0.5 % w/w
[7] = pH (1% Aq.) 4.7, water content <0.2 % w/w
[8] = pH (1% Aq.) 4.7, water content >0.3 to <0.5 % w/w
[9] = pH (1% Aq.) 5.1, water content <0.2 % w/w
[10] = pH (1% Aq.) 5.1, water content >0.3 to <0.5 % w/w
[11] = pH (1% Aq.) 5.5, water content <0.2 % w/w
[12] = pH (1% Aq.) 5.5, water content >0.3 to <0.5 % w/w
[13] = pH (1% Aq.) 5.8, water content <0.2 % w/w
[14] = pH (1% Aq.) 5.8, water content >0.3 to <0.5 % w/w

Molecule: CN(C)C(CSC(N)=O)CSC(N)=O [Cartap Hydrochloride, S,S′-(2-dimethylaminotrimethylene) bis(thiocarbamate)]
- % Cartap Hydrochloride degradation (14 days storage, 54° C.) Process 1 [1, 3]: 0%
- % Cartap Hydrochloride degradation (14 days storage, 54° C.) Process 2 [1, 3]: 2.27%
- % Cartap Hydrochloride degradation (14 days storage, 54° C.) Process 1 [1, 4]: 0%
- % Cartap Hydrochloride degradation (14 days storage, 54° C.) Process 2 [1, 4]: 2.80%
- % Cartap Hydrochloride degradation (14 days storage, 54° C.) Process 2 [1, 5]: 0.23%
- % Cartap Hydrochloride degradation (14 days storage, 54° C.) Process 2 [1, 6]: 2.80%
- % Cartap Hydrochloride degradation (14 days storage, 54° C.) Process 1 [1, 7]: 2.46%
- % Cartap Hydrochloride degradation (14 days storage, 54° C.) Process 1 [1, 8]: 3.63%
- % Cartap Hydrochloride degradation (14 days storage, 54° C.) Process 1 [1, 9]: 2.40%
- % Cartap Hydrochloride degradation (14 days storage, 54° C.) Process 2 [1, 9]: 1.67%
- % Cartap Hydrochloride degradation (14 days storage, 54° C.) Process 1 [1, 10]: 4.05%
- % Cartap Hydrochloride degradation (14 days storage, 54° C.) Process 2 [1, 10]: 1.22%
- % Cartap Hydrochloride degradation (14 days storage, 54° C.) Process 1 [1, 11]: 0.00%
- % Cartap Hydrochloride degradation (14 days storage, 54° C.) Process 1 [1, 12]: 3.30%
- % Cartap Hydrochloride degradation (14 days storage, 54° C.) Process 1 [1, 13]: 3.16%
- % Cartap Hydrochloride degradation (14 days storage, 54° C.) Process 2 [1, 13]: 1.09%
- % Cartap Hydrochloride degradation (14 days storage, 54° C.) Process 1 [1, 14]: 4.94%
- % Cartap Hydrochloride degradation (14 days storage, 54° C.) Process 2 [1, 14]: 6.48%

Molecule: (4″R)-5-O-demethyl-4″-deoxy-4″-(methylamino)avermectin [Emamectin]
- % Emamectin degradation (14 Days Storage, 54° C.) Process 1 [1, 3]: 1.9%
- % Emamectin degradation (14 Days Storage, 54° C.) Process 2 [1, 3]: 4.49%
- % Emamectin degradation (14 Days Storage, 54° C.) Process 1 [1, 4]: 13%
- % Emamectin degradation (14 Days Storage, 54° C.) Process 2 [1, 4]: 13.97%
- % Emamectin degradation (14 Days Storage, 54° C.) Process 1 [1, 5]: 0.95%
- % Emamectin degradation (14 Days Storage, 54° C.) Process 2 [1, 5]: 2.3%
- % Emamectin degradation (14 Days Storage, 54° C.) Process 1 [1, 6]: 14.45%
- % Emamectin degradation (14 Days Storage, 54° C.) Process 2 [1, 6]: 5.02%
- % Emamectin degradation (14 Days Storage, 54° C.) Process 1 [1, 7]: 6.14%
- % Emamectin degradation (14 Days Storage, 54° C.) Process 2 [1, 7]: 2.38%
- % Emamectin degradation (14 Days Storage, 54° C.) Process 1 [1, 8]: 17.1%
- % Emamectin degradation (14 Days Storage, 54° C.) Process 2 [1, 8]: 7.31%
- % Emamectin degradation (14 Days Storage, 54° C.) Process 1 [1, 9]: 7.98%
- % Emamectin degradation (14 Days Storage, 54° C.) Process 2 [1, 9]: 4.49%
- % Emamectin degradation (14 Days Storage, 54° C.) Process 1 [1, 10]: 12.12%
- % Emamectin degradation (14 Days Storage, 54° C.) Process 2 [1, 10]: 27.2%
- % Emamectin degradation (14 Days Storage, 54° C.) Process 1 [1, 11]: 8.33%
- % Emamectin degradation (14 Days Storage, 54° C.) Process 2 [1, 11]: 6.89%
- % Emamectin degradation (14 Days Storage, 54° C.) Process 1 [1, 12]: 40.96%
- % Emamectin degradation (14 Days Storage, 54° C.) Process 2 [1, 12]: 24.63%
- % Emamectin degradation (14 Days Storage, 54° C.) Process 1 [1, 13]: 16.7%
- % Emamectin degradation (14 Days Storage, 54° C.) Process 2 [1, 13]: 20.2%
- % Emamectin degradation (14 Days Storage, 54° C.) Process 1 [1, 14]: 70.74%
- % Emamectin degradation (14 Days Storage, 54° C.) Process 2 [1, 14]: 26.59%
- decomposition of emamectin ([2]; highly unstable, decomposes rapidly): about 25%
- stability to hydrolysis ([2]; pH 5, 6, 7 and 8 (25° C.)): stable to hydrolysis
